The values below come from ChEMBL document CHEMBL1201862, “PubChem BioAssay data set” (2004).

Test systems include T47D; BT-549; ACHN; RPMI-8226; UACC-257; SF-295; K562; RXF 393; SNB-75; HCT-116; TK-10; UO-31; OVCAR-4; U-251; LOX IMVI; SK-MEL-28; MDA-MB-435; NCI-H522; Malme-3M.
Holding throughout (experiment): DTP human tumour cell line panel, 48 h

Where a name gives a salt, the structure may show the parent alone.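 Protocol summary: plate cells (96-well), add compound at 5 concentrations, incubate 48 h, interpolate endpoints linearly. GI50: concentration for 50% inhibition of growth.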 Active and inactive are the calls of the source. No stated cut-off is given here; in the data, active = GI50 up to about 1.1 µM and inactive = higher. Some results are limits rather than exact numbers.

In general, GI50 refers to the concentration that inhibits growth by half. On to `CCOC(=O)c1c(NC(=O)c2cccs2)sc2c1CCC2`, for which the GI50 with T47D, in the assay on BT-549, with ACHN, in the assay with RPMI-8226, in the assay with UACC-257 and with SF-295 was > 100 µM (inactive) throughout. Also, the GI50 in the assay with K562 was > 100 µM (inactive); with RXF 393, > 100 µM (inactive); in the assay with SNB-75, 1.22 µM (inactive); with HCT-116, > 100 µM (inactive); in the assay with TK-10, > 100 µM (inactive); in the assay with UO-31 it was > 100 µM (inactive).

On to `C#Cc1cccc(Nc2ncnc3cc(OCCOC)c(OCCOC)cc23)c1` [ERLOTINIB HYDROCHLORIDE], for which the GI50 with OVCAR-4 was 27.2 µM (inactive); in the assay with U-251, 29.4 µM (inactive); with ACHN, 0.109 µM (active); in the assay on LOX IMVI, 4.34 µM (inactive); with SK-MEL-28 it was > 100 µM (inactive); in the assay on RPMI-8226, 55.3 µM (inactive). Also, the GI50 in the assay on MDA-MB-435 is 4.06 µM (inactive); with UACC-257, > 100 µM (inactive); in the assay with SF-295, 16.2 µM (inactive); in the assay with SNB-75, 14.8 µM (inactive); in the assay on HCT-116, 6.05 µM (inactive); with UO-31 it was 3.79 µM (inactive).

Regarding `O=C(O)c1ccc(Nc2cnc3cc(C(F)(F)F)ccc3n2)cc1`, the GI50 is 25.8 µM (inactive) in the assay with NCI-H522; 48.2 µM (inactive) in the assay with U-251; 20.9 µM (inactive) in the assay with T47D; 34.1 µM (inactive) with ACHN; 35.8 µM (inactive) with LOX IMVI; 42.4 µM (inactive) with SK-MEL-28. Moreover, the GI50 was 35.2 µM (inactive) in the assay on RPMI-8226; 43.5 µM (inactive) with MDA-MB-435; 43.7 µM (inactive) in the assay on UACC-257; 89.3 µM (inactive) in the assay with SF-295; 29.5 µM (inactive) in the assay with K562; 46.9 µM (inactive) in the assay on RXF 393. For the same compound, the GI50 with SNB-75 is 35.6 µM (inactive); with HCT-116, 54.7 µM (inactive); in the assay on TK-10, 31.5 µM (inactive); in the assay with Malme-3M, 29.5 µM (inactive); in the assay on UO-31, 43.2 µM (inactive).

As to `Cc1cc(O)nc(NNC(C#N)c2ccccc2O)n1` (stereo unspecified), the GI50 in the assay on NCI-H522 was 41.4 µM (inactive); with OVCAR-4, 15.5 µM (inactive); in the assay on U-251, 15.2 µM (inactive); with ACHN, 16.6 µM (inactive); with LOX IMVI, 17.6 µM (inactive); in the assay with SK-MEL-28, 36.3 µM (inactive). Further, the GI50 in the assay on RPMI-8226 was 22 µM (inactive); with UACC-257 it was 39 µM (inactive); with SF-295 it was 38.4 µM (inactive); with K562 it was 41.7 µM (inactive); in the assay with RXF 393, > 100 µM (inactive); in the assay with SNB-75, 31.5 µM (inactive). The GI50 was 19.3 µM (inactive) in the assay on HCT-116, 61 µM (inactive) in the assay on TK-10, 35.7 µM (inactive) with Malme-3M and 18.5 µM (inactive) in the assay with UO-31.

For the compound `N#CSC#CCCC#CSC#N`, the GI50 in the assay with NCI-H522 was 2.2 µM (inactive); with OVCAR-4, 27.1 µM (inactive); in the assay with U-251, 16.9 µM (inactive); in the assay with BT-549, 21.7 µM (inactive); with ACHN it was 17.5 µM (inactive); in the assay on LOX IMVI, 18.7 µM (inactive). The GI50 with SK-MEL-28 was 29.4 µM (inactive); in the assay with MDA-MB-435 it was 23 µM (inactive); in the assay with UACC-257, 16.9 µM (inactive); in the assay with SF-295 it was 18.3 µM (inactive); in the assay on K562, 13.4 µM (inactive); in the assay with RXF 393, 18.9 µM (inactive). In addition, the GI50 with HCT-116 is 22.8 µM (inactive); in the assay on TK-10 it was 17.9 µM (inactive); in the assay on Malme-3M, 17.9 µM (inactive); with UO-31, 18 µM (inactive).

For `COC(=O)/C=C(\C)CC/C=C(\C)CCC(O)C(C)(C)O` (stereo unspecified), the GI50 is 48.5 µM (inactive) in the assay on OVCAR-4; 28.2 µM (inactive) in the assay on U-251; 29 µM (inactive) with BT-549; 25.6 µM (inactive) with ACHN; 16.2 µM (inactive) in the assay on LOX IMVI; 17.9 µM (inactive) in the assay on SK-MEL-28. The GI50 was 36.4 µM (inactive) in the assay with UACC-257; 23.1 µM (inactive) in the assay on SF-295; 26.1 µM (inactive) with K562; 26.3 µM (inactive) with RXF 393; 17.1 µM (inactive) in the assay with SNB-75; 20.8 µM (inactive) in the assay on HCT-116. Further, the GI50 is 45 µM (inactive) in the assay on TK-10, 17.5 µM (inactive) in the assay on Malme-3M and 39.2 µM (inactive) with UO-31.

Consider `CCOC(=O)c1ccc(NCc2ccc3oc(=O)c(-c4ccccc4)nc3c2)cc1`, for which the GI50 in the assay on NCI-H522 was 6.21 µM (inactive); in the assay on OVCAR-4, 18 µM (inactive); in the assay on U-251, 61.2 µM (inactive); in the assay with T47D, 12.4 µM (inactive); in the assay with ACHN it was 26.6 µM (inactive); in the assay on LOX IMVI, 31.8 µM (inactive). Further, the GI50 in the assay on SK-MEL-28 is 30.7 µM (inactive); in the assay on MDA-MB-435 it was 16.2 µM (inactive); in the assay with UACC-257, 20.3 µM (inactive); in the assay with SF-295 it was > 100 µM (inactive); in the assay on K562, 22.5 µM (inactive); in the assay on RXF 393, 8.36 µM (inactive). In addition, the GI50 in the assay on SNB-75 is 9.48 µM (inactive); in the assay on HCT-116, 29.8 µM (inactive); with Malme-3M, 18.8 µM (inactive); with UO-31, 27 µM (inactive).

Take `CC(=O)OCC(Br)C1(C)CCC(C(C)(C)Br)O1` (stereo unspecified): the GI50 in the assay on NCI-H522 was 28.5 µM (inactive); with OVCAR-4, 11.2 µM (inactive); in the assay on U-251, 73.5 µM (inactive); with BT-549 it was 79.6 µM (inactive); with ACHN, 94.8 µM (inactive); in the assay with LOX IMVI, 23.1 µM (inactive). Further, the GI50 in the assay with SK-MEL-28 is 79.6 µM (inactive); in the assay on RPMI-8226 it was > 100 µM (inactive); in the assay with MDA-MB-435, 69.5 µM (inactive); in the assay on UACC-257, 12.1 µM (inactive); in the assay on SF-295 it was > 100 µM (inactive); in the assay on K562, > 100 µM (inactive). For the same compound, the GI50 with RXF 393 was 51.1 µM (inactive); in the assay on SNB-75, 58.2 µM (inactive); in the assay on HCT-116, 46.8 µM (inactive); with TK-10 it was > 100 µM (inactive); with Malme-3M, 83.6 µM (inactive); with UO-31 it was 39.6 µM (inactive).

For `Clc1cccc(C2ON=C(c3ccccc3)N2C23CC4CC(CC(C4)C2)C3)c1Cl` (stereo unspecified), the GI50 in the assay on NCI-H522, in the assay with OVCAR-4, in the assay on U-251, in the assay with T47D, with ACHN and in the assay on LOX IMVI was > 10 µM (inactive) throughout. The GI50 in the assay with SK-MEL-28, in the assay with RPMI-8226, with MDA-MB-435, in the assay with UACC-257, in the assay with SF-295 and in the assay on K562 was > 10 µM (inactive) each time. For the same compound, the GI50 is > 10 µM (inactive) with RXF 393; > 10 µM (inactive) with SNB-75; > 10 µM (inactive) in the assay with HCT-116; > 10 µM (inactive) with TK-10; > 10 µM (inactive) in the assay on Malme-3M; 5.02 µM (inactive) with UO-31.

`COCn1cc(C2=C(C)C(=O)C(C)=C(C)C2=O)cn1`: the GI50 in the assay on OVCAR-4 was 17.7 µM (inactive); with T47D it was 23.6 µM (inactive); in the assay on ACHN it was 85.9 µM (inactive); in the assay on LOX IMVI, > 10 µM (inactive); in the assay with SK-MEL-28, > 100 µM (inactive); in the assay with RPMI-8226, 27.9 µM (inactive). For the same compound, the GI50 in the assay on MDA-MB-435 was 19.6 µM (inactive); in the assay on UACC-257, 85.5 µM (inactive); in the assay with SF-295 it was > 100 µM (inactive); in the assay with K562 it was 18.9 µM (inactive); in the assay on RXF 393, > 100 µM (inactive); in the assay with SNB-75, 11.4 µM (inactive). Also, the GI50 was 20 µM (inactive) in the assay on HCT-116, > 100 µM (inactive) in the assay with TK-10, 99.5 µM (inactive) in the assay with Malme-3M and 57.5 µM (inactive) in the assay on UO-31.

`O=[N+]([O-])C(C(Cl)=C(Cl)Cl)=C(N1CCOCC1)N1CCOCC1`: the GI50 with NCI-H522, in the assay with OVCAR-4, with U-251, in the assay on T47D, in the assay on ACHN and with LOX IMVI was > 100 µM (inactive) in each case. The GI50 in the assay on SK-MEL-28, in the assay with RPMI-8226, in the assay with MDA-MB-435, with UACC-257, in the assay on SF-295 and in the assay on K562 was > 100 µM (inactive) throughout. Also, the GI50 was > 100 µM (inactive) in the assay on RXF 393; 1.14 µM (inactive) in the assay with SNB-75; > 100 µM (inactive) with HCT-116; > 100 µM (inactive) in the assay on TK-10; 57.3 µM (inactive) in the assay on Malme-3M; > 100 µM (inactive) in the assay with UO-31.

In the case of `CN(C)c1cccc2c(S(=O)(=O)NCCCNCCN)cccc12`, the GI50 is 48.1 µM (inactive) in the assay on NCI-H522; 55.2 µM (inactive) with OVCAR-4; 29 µM (inactive) in the assay on U-251; 49.4 µM (inactive) in the assay on T47D; > 100 µM (inactive) in the assay on ACHN; 66.8 µM (inactive) with LOX IMVI. The GI50 in the assay with SK-MEL-28 is 46.1 µM (inactive); with MDA-MB-435 it was 27.4 µM (inactive); in the assay on UACC-257 it was > 100 µM (inactive); with SF-295, 55.2 µM (inactive); in the assay on K562, 20.8 µM (inactive); in the assay on RXF 393, 36.8 µM (inactive). Besides, the GI50 was 13.6 µM (inactive) in the assay with SNB-75, 36.2 µM (inactive) in the assay with HCT-116, 61.5 µM (inactive) in the assay with Malme-3M and 56.9 µM (inactive) in the assay with UO-31.

Regarding `O=Cc1cc2c(cc1-c1c(C=O)ccc3c1OCO3)OCO2`, the GI50 with OVCAR-4, in the assay on U-251, in the assay on T47D, in the assay on BT-549, in the assay with ACHN and in the assay with LOX IMVI was > 10 µM (inactive) each time. For the same compound, the GI50 in the assay on SK-MEL-28, in the assay with RPMI-8226, with MDA-MB-435, in the assay with UACC-257, with SF-295 and in the assay on K562 was > 10 µM (inactive) in each case. The GI50 in the assay with SNB-75, in the assay on HCT-116, in the assay with TK-10 and in the assay on Malme-3M was > 10 µM (inactive) in each case.
